Laboratory results: US9944654B2, “Nargenicin compounds and uses thereof as antibacterial agents” (priority 2014, dated 2018)
In brackets after ≈: the same amount, converted by molar mass. Like-named read-outs stand apart in the source and are kept apart here.

Assays:
[1] = test system: Streptococcus pneumoniae MB6357 (CL 2883); assay: Nargenicin antibacterial assay (MIC), S. pneumoniae; assay type: cell-based; settings: * = some reduction of growth versus control at […]; for MIC: Streptococcus pneumoniae, read-out: S. pneumoniae MB2883 (MIC), Isosensitest broth
[2] = target: T1, E. coli DnaE (DNA polymerase III α-subunit from Escherichia coli) (Escherichia coli, UniProt P10443); assay: In vitro DnaE single enzyme assay (E. coli); assay type: biochemical
T1 construct: EcDnaE (E. coli DnaE residues 1-1160); 6xHis (N); made in house; host or cells: E. coli BL21(DE3)
How it was run: (§1)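 3H-dTTP (0.011 mM) incorporation into DNase I-activated calf thymus DNA, alongside the other three dNTPs at 0.025 mM, measured by filter counting after TCA precipitation. Reactions ran 30 min at 30° C., started with purified N-His DnaE: 0.8 μg/ml for E. coli, 0.05 μg/ml for S. aureus.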

[3] = test system: Staphylococcus aureus MB6266 (MRSA COL); assay: Nargenicin antibacterial assay (MIC), S. aureus; assay type: cell-based; settings: * = some reduction of growth versus control at […]; for MIC: Staphylococcus aureus, MRSA, read-out: S. aureus COL (MIC), MHII broth + 50% human serum
[4] = test system: Escherichia coli MB5747 (LS 883, tolC); assay: microbe, parasite or virus in culture; assay type: cell-based; settings: * = some reduction of growth versus control at […]; for MIC: Escherichia coli, read-out: E. coli LS883 tolC (MIC), MHII broth
[5] = test system: Pseudomonas aeruginosa MB5890 (CB1101, efflux-deleted); assay: microbe, parasite or virus in culture; assay type: cell-based; settings: * = some reduction of growth versus control at […]; for MIC: Pseudomonas aeruginosa, read-out: P. aeruginosa MB5890 efflux-del (MIC), MHII broth
[6] = target: T2, S. aureus DnaE (DNA polymerase III α-subunit homolog from Staphylococcus aureus) (Staphylococcus aureus, UniProt Q5HF71); assay: biochemical; assay type: biochemical
T2 construct: SaDnaE (S. aureus DnaE residues 1-1065); 6xHis (N); made in house; host or cells: E. coli BL21-AI
T2 sequence (Q5HF71 1-1065): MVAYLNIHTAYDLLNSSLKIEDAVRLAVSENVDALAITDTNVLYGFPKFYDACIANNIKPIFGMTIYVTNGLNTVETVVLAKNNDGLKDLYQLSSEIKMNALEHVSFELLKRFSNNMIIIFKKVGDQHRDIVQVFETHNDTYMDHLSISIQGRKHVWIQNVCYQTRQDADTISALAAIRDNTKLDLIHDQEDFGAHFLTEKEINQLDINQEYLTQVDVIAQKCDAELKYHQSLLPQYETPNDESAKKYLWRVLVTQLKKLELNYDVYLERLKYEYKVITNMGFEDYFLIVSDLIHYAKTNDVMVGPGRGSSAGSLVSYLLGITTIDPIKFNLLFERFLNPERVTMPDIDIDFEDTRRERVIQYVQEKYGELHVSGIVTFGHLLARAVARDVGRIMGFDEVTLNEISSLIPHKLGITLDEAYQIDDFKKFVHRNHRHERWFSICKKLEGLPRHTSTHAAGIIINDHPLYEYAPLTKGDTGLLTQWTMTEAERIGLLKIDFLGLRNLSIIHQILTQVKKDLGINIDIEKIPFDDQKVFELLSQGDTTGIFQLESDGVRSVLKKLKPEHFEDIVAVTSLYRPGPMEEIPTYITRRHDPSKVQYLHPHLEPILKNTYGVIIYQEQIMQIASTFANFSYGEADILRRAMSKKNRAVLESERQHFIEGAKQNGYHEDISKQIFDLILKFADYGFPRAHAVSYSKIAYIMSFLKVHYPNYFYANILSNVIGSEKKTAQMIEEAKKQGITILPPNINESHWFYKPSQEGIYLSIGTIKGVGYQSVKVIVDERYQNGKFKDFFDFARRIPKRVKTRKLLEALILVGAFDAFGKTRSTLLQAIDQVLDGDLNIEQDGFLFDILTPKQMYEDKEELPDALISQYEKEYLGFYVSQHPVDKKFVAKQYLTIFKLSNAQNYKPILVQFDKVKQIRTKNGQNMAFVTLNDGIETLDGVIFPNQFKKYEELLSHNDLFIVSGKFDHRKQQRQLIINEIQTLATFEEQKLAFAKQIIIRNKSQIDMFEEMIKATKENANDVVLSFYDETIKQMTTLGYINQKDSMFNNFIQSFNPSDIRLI
How it was run: as §1

[7] = read-out: E. coli DnaE IC50 (converted)

T1 sequence (P10443 whole entry, the tested form may be a part): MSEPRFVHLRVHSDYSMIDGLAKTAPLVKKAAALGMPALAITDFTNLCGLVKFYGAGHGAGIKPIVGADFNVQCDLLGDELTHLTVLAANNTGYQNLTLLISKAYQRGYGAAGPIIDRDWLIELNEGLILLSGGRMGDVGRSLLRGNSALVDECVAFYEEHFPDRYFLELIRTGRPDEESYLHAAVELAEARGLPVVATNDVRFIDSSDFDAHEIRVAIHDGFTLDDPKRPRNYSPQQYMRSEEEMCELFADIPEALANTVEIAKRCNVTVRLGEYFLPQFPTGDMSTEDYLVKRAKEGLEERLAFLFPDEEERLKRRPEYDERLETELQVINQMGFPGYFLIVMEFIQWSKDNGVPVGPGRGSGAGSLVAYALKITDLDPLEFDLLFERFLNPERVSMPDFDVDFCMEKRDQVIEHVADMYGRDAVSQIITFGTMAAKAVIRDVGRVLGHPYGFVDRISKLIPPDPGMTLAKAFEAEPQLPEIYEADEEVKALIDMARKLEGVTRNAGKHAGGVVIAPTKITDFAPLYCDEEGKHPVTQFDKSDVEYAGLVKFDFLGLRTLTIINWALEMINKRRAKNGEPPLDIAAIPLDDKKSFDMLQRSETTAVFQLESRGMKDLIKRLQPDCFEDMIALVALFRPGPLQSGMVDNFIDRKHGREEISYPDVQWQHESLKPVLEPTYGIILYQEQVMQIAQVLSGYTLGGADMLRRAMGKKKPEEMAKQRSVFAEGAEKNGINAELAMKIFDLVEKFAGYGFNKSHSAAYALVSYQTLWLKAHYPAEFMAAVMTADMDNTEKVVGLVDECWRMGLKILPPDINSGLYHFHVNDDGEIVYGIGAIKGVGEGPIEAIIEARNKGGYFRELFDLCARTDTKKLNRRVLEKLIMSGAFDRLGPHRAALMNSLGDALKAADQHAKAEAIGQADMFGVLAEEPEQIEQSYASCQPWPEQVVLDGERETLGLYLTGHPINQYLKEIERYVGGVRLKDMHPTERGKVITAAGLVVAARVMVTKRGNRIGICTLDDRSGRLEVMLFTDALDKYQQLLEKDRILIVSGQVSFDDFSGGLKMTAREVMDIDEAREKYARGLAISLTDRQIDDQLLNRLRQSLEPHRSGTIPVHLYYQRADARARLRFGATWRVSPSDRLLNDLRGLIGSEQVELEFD

Row | SMILES | MIC [1] [µg/mL] | IC50 [2, 7] [µM] | MIC [3] [µg/mL] | MIC [4] [µg/mL] | MIC [5] [µg/mL] | IC50 ([6]; S. aureus DnaE IC50) [µM] | IC50 ([2]; E. coli DnaE IC50) [µM] | S. pneumoniae MB2883 (MIC) ([1]; Isosensitest broth) | E. coli DnaE IC50 [2] [µg/mL] | S. aureus COL (MIC) ([3]; MHII broth + 50% human serum) [µg/mL] | E. coli LS883 tolC (MIC) ([4]; MHII broth) [µg/mL] | P. aeruginosa MB5890 efflux-del (MIC) ([5]; MHII broth) [µg/mL] | S. aureus DnaE IC50 [6] [µg/mL] | IC50 ([6]; read-out: S. aureus DnaE IC50 (converted)) [µM]
1 | CCCNC(=O)O[C@@H]1[C@@H](C)[C@@H](OC(=O)c2ccc[nH]2)[C@@H]2O[C@@]34/C(C)=C/[C@@H](C)[C@@H]([C@@H](C)OC(=O)NCCC)OC(=O)[C@@H](OC)C[C@H]3C=C[C@@H]2[C@@H]14 [Example 3] | > 128 | 30.6 | > 8 | > 8 | > 128 | > 146 |  |  |  |  |  |  |  | 
2 | CO[C@H]1C[C@H]2[C@H](O)C[C@H]3[C@H]4O[C@]2(/C(C)=C/[C@@H](C)[C@@H]([C@@H](C)O)OC1=O)[C@@H]3[C@H](O)[C@@H](C)[C@H]4OC(=O)c1ccc[nH]1 [Example 191] | > 128 | > 187 | > 128 | 128 (≈ 240 µM) | > 128 | 7.5 |  |  |  |  |  |  |  | 
3 | CO[C@H]1C[C@H]2CC[C@H]3[C@H]4O[C@]2(/C(C)=C/[C@@H](C)[C@@H]([C@@H](C)O)OC1=O)[C@@H]3[C@H](O)[C@@H](C)[C@H]4OC(=O)c1ccc[nH]1 [Example 37, (3R,4S,7S,8aR,10aR,11R,12R,13R,14R,14aS,14bS,E)-14-hydroxy-4-((R)-1-hydroxyethyl)-7-methoxy-1,3,13-trimethyl-6-oxo-3,4,6,7,8,8a,9,10,10a,11,12,13,14,14a-tetradecahydro-11,14b-epoxynaphtho[2,1-e]oxecin-12-yl 1H-pyrrole-2-carboxylate] | > 128 |  | > 8 | > 8 | 128 (≈ 247 µM) | < 0.0966 | > 193 |  |  |  |  |  |  | 
4 | CO[C@H]1C[C@H]2C=CC3C4[C@H](O)[C@@H](C)[C@@H](OC(=O)c5ccc[nH]5)[C@@H]3O[C@]42/C(C)=C/[C@@H](C)[C@@H]([C@@H](C)OC(=O)n2nnnc2N)OC1=O [Example 64] | > 128 | 46.3 | 4 | 4 (≈ 6.38 µM) | 128 (≈ 204 µM) | < 0.00957 |  |  |  |  |  |  |  | 
5 | CO[C@H]1C[C@H]2C=CC3C4[C@H](O)[C@@H](C)[C@@H](OC(=O)c5ccc[nH]5)[C@@H]3O[C@]42/C(C)=C/[C@@H](C)[C@@H]([C@@H](C)OC(=O)C(=O)OCCN2CCCCC2)OC1=O.O=C(O)C(F)(F)F [Example 213] | > 128 | 4.43 | 4 | 4 | 128 | < 0.00738 |  |  |  |  |  |  |  | 
6 | CO[C@H]1C[C@H]2C=C[C@H]3[C@H]4O[C@]2(/C(C)=C/[C@@H](C)[C@@H]([C@@H](C)OC(=O)NCc2ccncc2)OC1=O)[C@@H]3[C@H](O)[C@@H](C)[C@H]4OC(=O)c1ccc[nH]1 [Example 11] | > 128 | 123 | 32 | 16 (≈ 24.6 µM) | > 128 | 0.0292 |  |  |  |  |  |  |  | 
7 | CO[C@H]1C[C@H]2C=CC3C4[C@H](O)[C@@H](C)[C@@H](OC(=O)c5ccc[nH]5)[C@@H]3O[C@]42/C(C)=C/[C@@H](C)[C@@H]([C@@H](C)OC(=O)C(=O)OCCN2CCN(C)CC2)OC1=O.O=C(O)C(F)(F)F [Example 210] | > 128 | 4.95 | 1 | 1 | 32 | < 0.00725 |  |  |  |  |  |  |  | 
8 | CO[C@H]1C[C@H]2C=CC3C4[C@H](O)[C@@H](C)[C@@H](OC(=O)c5ccc[nH]5)[C@@H]3O[C@]42/C(C)=C/[C@@H](C)[C@@H]([C@@H](C)OC(=O)C(=O)OCc2cncn2C)OC1=O.O=C(O)C(F)(F)F [Example 207] | > 64 | 3.27 | 4 | 4 | 64 | < 0.00754 |  |  |  |  |  |  |  | 
9 | CO[C@H]1C[C@H]2C=C[C@@H]3[C@H]4[C@H](O)[C@@H](C)C(=O)[C@@H]3O[C@]42/C(C)=C/[C@@H](C)[C@@H]([C@@H](C)O)OC1=O [Example 202] | > 128 | > 238 | > 128 | 128 (≈ 304 µM) | > 128 | 78.5 |  |  |  |  |  |  |  | 
10 | COC(=O)O[C@H](C)[C@H]1OC(=O)[C@@H](OC)CC2C=C[C@H]3[C@H]4O[C@]2(/C(C)=C/[C@H]1C)[C@@H]3[C@H](O)[C@@H](C)[C@H]4OC(=O)c1ccc[nH]1 (stereo partly drawn) [Example 27] | 64 (≈ 112 µM) | 61 | 2 | 4 (≈ 6.97 µM) | > 128 | < 0.0105 |  |  |  |  |  |  |  | 
11 | C=CC[C@@H]1OC(=O)[C@@H](OC)C[C@H]2C=C[C@H]3[C@H]4O[C@]2(/C(C)=C/[C@H]1C)[C@@H]3[C@H](O)[C@@H](C)[C@H]4OC(=O)c1ccc[nH]1 [Example 54] | > 128 | 60.6 | 64 | 64 (≈ 125 µM) | > 128 | 0.088 |  |  |  |  |  |  |  | 
12 | CO[C@H]1C[C@H]2C=CC3C4[C@H](O)[C@@H](C)[C@@H](OC(=O)c5ccc[nH]5)[C@@H]3O[C@]42/C(C)=C/[C@@H](C)[C@@H]([C@@H](C)OS(=O)(=O)O)OC1=O [Example 198] | > 128 | 20.1 | 4 | 4 (≈ 6.72 µM) | 64 (≈ 107 µM) | < 0.0101 |  |  |  |  |  |  |  | 
13 | COCCNC(=O)C(=O)O[C@H](C)[C@H]1OC(=O)[C@@H](OC)C[C@H]2C=CC3C4[C@H](O)[C@@H](C)[C@@H](OC(=O)c5ccc[nH]5)[C@@H]3O[C@]42/C(C)=C/[C@H]1C [Example 119] |  |  |  |  |  |  |  | >128* μg/mL | 11 | ≤0.125 | 0.25 | 8 | 0.0012 | 
14 | CO[C@H]1CC2C=C[C@H]3[C@H]4O[C@]2(/C(C)=C/[C@@H](C)[C@@H](C(C)O)OC1=O)[C@@H]3[C@H](O)[C@@H](C)[C@H]4OC(=O)c1ccc[nH]1 (stereo partly drawn) [Example 145, Nargenicin A1, reference compound] | > 128 | 1.75 | 0.25 | 0.25 (≈ 0.485 µM) | 4 (≈ 7.76 µM) | < 0.0116 |  |  |  |  |  |  |  | 
15 | COC(=O)/C=C/c1c[nH]c(C(=O)O[C@@H]2[C@H](C)[C@@H](O)[C@@H]3[C@H]4C=CC5C[C@H](OC)C(=O)O[C@H](C(C)O)[C@H](C)/C=C(\C)[C@]53O[C@H]42)c1 (stereo partly drawn) [Example 166] | > 64 | > 83.4 | > 64 | 64 (≈ 107 µM) | > 64 | 0.3 |  |  |  |  |  |  |  | 
16 | CO[C@H]1CC2C=C[C@H]3[C@H]4O[C@]2(/C(C)=C/[C@@H](C)[C@@H]([C@@H](C)O)OC1=O)[C@@H]3[C@H](OC(=O)NC1CC1)[C@@H](C)[C@H]4OC(=O)c1ccc[nH]1 (stereo partly drawn) [Example 39] | > 128 |  | > 128 | > 128 | > 128 |  | > 167 |  |  |  |  |  |  | 15
17 | CO[C@H]1CC2C=C[C@H]3[C@H]4O[C@]2(/C(C)=C/[C@@H](C)[C@@H](C(C)O)OC1=O)[C@@H]3[C@H](O)[C@@H](C)[C@H]4OC(=O)c1[nH]c(-c2ccsc2)c(-c2ccsc2)c1-c1ccsc1 (stereo partly drawn) [Example 201] | 128 (≈ 168 µM) | 0.525 | > 128 | > 128 | > 128 | 0.394 |  |  |  |  |  |  |  | 
